# Data: article PMC8342458, “GluN2A and GluN2B NMDA receptors use distinct allosteric routes” (Nature Communications, 2021)
# Several values for one entry are separate records, joined by “and”; a condition that tells them apart may be missing. Equal entries are not always repeated. Where two headings read alike, the source gives them in different places.
# What was measured:
# [1] = molecular target: T1, GluN1-N521C-L777C/GluN2A-E516C-L780C (CC/CC) receptors (Rattus norvegicus, UniProt P35439+Q00959, E516C/L777C/L780C/N521C); assay: TEVC recordings in Xenopus oocytes, zinc sensitivity; format: cell-based
# T1 construct: For full-length multimeric membrane-embedded receptors studied in cellulo, as done in the present work; expressed in transfected cells; host or cells: Xenopus laevis oocytes
# T1 sequence (Q00959 23-1464 E516C/L780C, other chains not shown): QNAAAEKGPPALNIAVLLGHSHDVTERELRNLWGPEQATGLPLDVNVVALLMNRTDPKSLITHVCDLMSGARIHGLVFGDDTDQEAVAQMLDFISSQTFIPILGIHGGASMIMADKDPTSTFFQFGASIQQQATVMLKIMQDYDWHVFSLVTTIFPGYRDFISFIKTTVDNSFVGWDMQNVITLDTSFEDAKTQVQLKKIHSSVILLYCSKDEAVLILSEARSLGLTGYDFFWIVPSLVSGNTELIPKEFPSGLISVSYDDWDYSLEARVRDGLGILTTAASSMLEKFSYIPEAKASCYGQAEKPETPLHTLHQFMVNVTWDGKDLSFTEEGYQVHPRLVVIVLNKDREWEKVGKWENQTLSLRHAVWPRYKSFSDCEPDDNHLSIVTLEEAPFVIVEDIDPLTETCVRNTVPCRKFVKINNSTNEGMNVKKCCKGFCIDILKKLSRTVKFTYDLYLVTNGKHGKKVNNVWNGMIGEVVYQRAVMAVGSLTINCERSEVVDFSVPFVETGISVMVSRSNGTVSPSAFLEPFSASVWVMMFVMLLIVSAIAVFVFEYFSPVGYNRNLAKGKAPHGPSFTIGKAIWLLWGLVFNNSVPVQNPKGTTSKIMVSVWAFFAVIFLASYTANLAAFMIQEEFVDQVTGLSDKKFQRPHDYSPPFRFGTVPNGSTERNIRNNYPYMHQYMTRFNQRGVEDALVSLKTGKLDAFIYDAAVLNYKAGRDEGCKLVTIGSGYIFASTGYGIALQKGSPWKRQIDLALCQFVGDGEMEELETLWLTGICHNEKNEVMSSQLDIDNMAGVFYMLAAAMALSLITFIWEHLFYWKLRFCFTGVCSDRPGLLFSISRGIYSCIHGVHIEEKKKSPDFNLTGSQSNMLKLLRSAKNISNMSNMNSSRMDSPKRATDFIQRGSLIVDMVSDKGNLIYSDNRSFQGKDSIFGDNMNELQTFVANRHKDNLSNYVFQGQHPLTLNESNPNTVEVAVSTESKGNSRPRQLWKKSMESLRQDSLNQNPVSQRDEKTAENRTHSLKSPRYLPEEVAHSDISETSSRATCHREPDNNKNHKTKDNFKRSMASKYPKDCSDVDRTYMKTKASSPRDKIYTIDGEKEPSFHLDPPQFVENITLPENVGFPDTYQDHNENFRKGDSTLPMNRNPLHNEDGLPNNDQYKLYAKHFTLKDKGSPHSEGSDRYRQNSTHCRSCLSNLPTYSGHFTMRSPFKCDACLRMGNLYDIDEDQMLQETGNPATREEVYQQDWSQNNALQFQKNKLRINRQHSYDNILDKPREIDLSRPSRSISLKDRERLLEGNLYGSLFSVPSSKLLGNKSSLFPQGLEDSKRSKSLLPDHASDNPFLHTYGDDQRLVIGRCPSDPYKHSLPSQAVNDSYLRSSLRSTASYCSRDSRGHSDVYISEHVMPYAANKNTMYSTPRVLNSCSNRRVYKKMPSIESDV
# Method: (§1) The pcDNA3-based expression plasmids for rat GluN1-1a (named GluN1 herein), rat GluN2A, and mouse GluN2B (also known as ε2) subunits, Pfu-based site-directed mutagenesis strategy, and sequencing procedure have been described previously[68],[69]. Incorporation of the unnatural amino acids (UAAs) AzF and BzF into NMDARs was performed using the genetic code expansion methodology as previously described[52],[53],[83]. The plasmid pSVB.Yam carrying the gene encoding the amber suppressor tRNA derived from B. stearothermophilus Tyr-tRNACUA, while the aminoacyl-tRNA synthetases (aaRS) construction for AzF and BzF derived from E. coli TyrRS[84],[85].
# (§2) Recombinant NMDARs were expressed in Xenopus laevis oocytes after nuclear injection of 36 nl of a mixture of cDNAs (at 10–30 ng/μl) encoding various GluN1 and GluN2 subunits (ratio 1:1). Oocytes were prepared, injected, incubated, and voltage-clamped as described previously. For UAA incorporation, oocytes were co-injected with 36 nl of a cDNA mixture encoding for of GluN1, GluN2, Yam, and aaRS as follows, unless otherwise indicated in the text: GluN1-K178amber (120 ng/μl), GluN2A (80 ng/µl) or GluN2B (120 ng/μl), Yam (10 ng/μl), AzF-RS (5 ng/μl). After injection, oocytes were incubated at 19 °C in a Barth solution containing (in mM) 88 NaCl, 1 KCl, 0.33 Ca(NO3)2, 0.41 CaCl2, 0.82 MgSO4, 2.4 NaHCO3, 10 HEPES (pH adjusted to 7.6 with NaOH) supplemented with gentamicin ([…]) and the NMDAR glutamate binding site competitive antagonist D-APV (50 μM). AzF and BzF were added to the incubation medium at final concentrations of 1 mM and 2 mM, respectively.
# (§3) For all experiments, except those on pH and spermine sensitivity, the standard external solution contained (in mM): 100 NaCl, 0.3 BaCl2, and 5 HEPES (pH adjusted to 7.3 with KOH). […] For the pH and spermine sensitivity experiments, an external solution enriched in HEPES was used to insure proper pH buffering. Unless otherwise mentioned, NMDAR-mediated currents were induced by simultaneously applications of saturating concentrations of glutamate and glycine (100 μM each). Glutamate and glycine dose-response curves (DRC) were performed in the presence of 100 µM glycine and 100 µM glutamate, respectively. Recordings were performed at a holding potential of −60 mV and at room temperature. Data were collected and analyzed using Clampex 10.5 and Clampfit 10.5 (Molecular Devices), respectively, and fitted using KaleidaGraph 4.0 (Synergy software).
# (§4) EC50 and nH were fitted as free parameters. […] For proton DRC, corrections for small shifts in the reference potential of bath electrodes and analysis of the data were performed as previously described. Spermine experiments were performed and analyzed as previously described. In brief, spermine sensitivity was assessed at pH 6.5 and at a holding potential of −30 mV to maximize the spermine induced potentiation. […] EC50, a and nH were set as free parameters. MK-801 is an NMDAR open channel blocker with slow reversibility and, consequently, the rate at which MK-801 inhibits NMDAR responses depends on the level of channel activity, that is, channel open probability (Po). Based on this principle, MK-801 is classically used to estimate the level of NMDAR channel activity in macroscopic whole-cell recordings[36],[47],[56],[86],[87]. Note, however, that MK- 801 inhibition kinetics can index relative, not absolute, Po. MK-801 solutions (10 nM for GluN2A-containing receptors and 50 nM for GluN2B-containing receptors) were prepared by dilution of a stock solution (50 mM) into the agonist containing solutions. MK-801 time constants of inhibition (τon) were obtained by fitting currents with a single-exponential component to a time window corresponding to 10–90% of maximum inhibition. On-rate (kon) constants were then calculated assuming a pseudo first-order reaction scheme: kon = 1 / ([MK-801]*τon).
# [2] = molecular target: T2, wild-type (wt) GluN1/GluN2B receptors (UniProt P35439+Q01097); assay: TEVC recordings in Xenopus oocytes, allosteric modulator sensitivity; format: cell-based, rat (GluN1), mouse (GluN2B)
# T2 construct: For full-length multimeric membrane-embedded receptors studied in cellulo, as done in the present work; expressed in transfected cells; host or cells: Xenopus laevis oocytes (nuclear cDNA injection, pcDNA3 plasmids)
# Method: as §1, §2, §3, §4
# [3] = molecular target: T3, wild-type (wt) GluN1/GluN2A receptors (Rattus norvegicus, UniProt P35439+Q00959); assay: as above; format: cell-based; conditions: for Izn/Io 1 nM: 1 nM zinc; for Izn/Io 10 nM: 10 nM zinc; for Izn/Io 50 nM: 50 nM zinc; for Izn/Io 500 nM: 500 nM zinc; for Izn/Io 1000 nM: 1000 nM zinc
# T3 construct: For full-length multimeric membrane-embedded receptors studied in cellulo, as done in the present work; expressed in transfected cells; host or cells: Xenopus laevis oocytes (nuclear cDNA injection, pcDNA3 plasmids)
# T3 sequence (Q00959 23-1464, other chains not shown): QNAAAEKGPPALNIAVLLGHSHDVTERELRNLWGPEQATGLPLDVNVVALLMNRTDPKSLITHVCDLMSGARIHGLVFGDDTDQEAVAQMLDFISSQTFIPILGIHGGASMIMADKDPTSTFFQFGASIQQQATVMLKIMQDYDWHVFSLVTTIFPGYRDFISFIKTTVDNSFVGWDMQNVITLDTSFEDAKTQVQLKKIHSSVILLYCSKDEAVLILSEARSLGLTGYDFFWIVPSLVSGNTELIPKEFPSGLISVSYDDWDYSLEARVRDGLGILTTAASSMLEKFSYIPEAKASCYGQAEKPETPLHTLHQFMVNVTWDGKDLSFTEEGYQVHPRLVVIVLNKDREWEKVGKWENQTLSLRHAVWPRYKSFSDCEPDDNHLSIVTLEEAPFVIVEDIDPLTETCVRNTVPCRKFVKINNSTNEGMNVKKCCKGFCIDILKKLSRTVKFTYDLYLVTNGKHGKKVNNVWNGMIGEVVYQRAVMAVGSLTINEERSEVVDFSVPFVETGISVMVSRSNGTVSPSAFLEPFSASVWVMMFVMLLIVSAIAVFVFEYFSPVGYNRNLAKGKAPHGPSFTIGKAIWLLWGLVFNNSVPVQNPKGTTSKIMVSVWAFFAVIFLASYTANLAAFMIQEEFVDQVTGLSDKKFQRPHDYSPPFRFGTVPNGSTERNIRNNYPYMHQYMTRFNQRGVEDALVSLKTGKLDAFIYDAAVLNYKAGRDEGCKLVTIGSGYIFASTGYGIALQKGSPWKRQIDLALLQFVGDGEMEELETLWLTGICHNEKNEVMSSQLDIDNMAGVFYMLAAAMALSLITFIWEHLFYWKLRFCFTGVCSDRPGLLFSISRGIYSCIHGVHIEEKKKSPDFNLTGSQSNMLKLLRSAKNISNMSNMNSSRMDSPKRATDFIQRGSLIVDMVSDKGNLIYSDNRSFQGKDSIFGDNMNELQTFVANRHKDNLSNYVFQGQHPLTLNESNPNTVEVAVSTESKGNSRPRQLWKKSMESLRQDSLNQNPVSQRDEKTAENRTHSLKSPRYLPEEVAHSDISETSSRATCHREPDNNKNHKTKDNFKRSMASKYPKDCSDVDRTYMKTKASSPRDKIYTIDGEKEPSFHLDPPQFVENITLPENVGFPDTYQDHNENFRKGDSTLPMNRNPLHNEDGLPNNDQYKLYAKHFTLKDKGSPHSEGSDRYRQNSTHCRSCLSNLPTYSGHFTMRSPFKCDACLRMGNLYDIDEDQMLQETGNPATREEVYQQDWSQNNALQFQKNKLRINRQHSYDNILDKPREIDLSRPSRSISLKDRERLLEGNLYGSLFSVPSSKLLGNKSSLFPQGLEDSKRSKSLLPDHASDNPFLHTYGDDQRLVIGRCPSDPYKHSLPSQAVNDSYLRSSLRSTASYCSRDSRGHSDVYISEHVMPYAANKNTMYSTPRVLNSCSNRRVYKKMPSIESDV
# Method: as §1, §2, §3, §4
# [4] = molecular target: T4, GluN1-K178AzF/GluN2A receptors (Rattus norvegicus, UniProt P35439+Q00959, K178F); assay: TEVC recordings in Xenopus oocytes, modulator sensitivity before and after UV photocrosslinking; format: cell-based; conditions: for Izn/Io 1 nM: 1 nM zinc; for Izn/Io 10 nM: 10 nM zinc; for Izn/Io 1000 nM: 1000 nM zinc
# T4 construct: For full-length multimeric membrane-embedded receptors studied in cellulo, as done in the present work; expressed in transfected cells; host or cells: Xenopus laevis oocytes, co-injected with amber suppressor tRNA (Yam) and AzF-RS
# T4 sequence (Q00959 23-1464, other chains not shown): as above
# Method: as §1, §2, §3, §4
# [5] = molecular target: T5, GluN1-K178AzF/GluN2A receptors (Rattus norvegicus, UniProt P35439+Q00959); assay: as above; format: cell-based; conditions: read-out: Zn2+ IC50
# T5 construct: For full-length multimeric membrane-embedded receptors studied in cellulo, as done in the present work; expressed in transfected cells; host or cells: Xenopus laevis oocytes, co-injected with amber suppressor tRNA (Yam) and AzF-RS
# Method: as §1, §2, §3, §4
smiles,measurement,setting,value
[Zn+2] [zinc],Zn2+ Hill slope (nH),[1],0.40 ± 0.11
same,Zn2+ maximal inhibition,[1],0.37 ± 0.04
same,Izn/Io 1 nM,[1]; 1 nM zinc,0.86 ± 0.01
same,Izn/Io 5 nM,[1]; 5 nM zinc,0.81 ± 0.02
same,Izn/Io 50 nM,[1]; 50 nM zinc,0.72 ± 0.03
same,Izn/Io 500 nM,[1]; 500 nM zinc,0.66 ± 0.04
same,Izn/Io 1000 nM,[1]; 1000 nM zinc,0.68 ± 0.01
same,IC50,[1]; read-out: Zn2+ IC50,3.44 ± 2.03 nM
same,Zn2+ Hill slope (nH),[2],1.08 ± 0.04 and 1.20 ± 0.04 and 0.96 ± 0.10
same,Izn/Io 0.1 μM,[2]; 0.1 μM zinc,0.80 ± 0.02 and 0.87 ± 0.02 and 0.78 ± 0.01
same,Izn/Io 0.3 μM,[2]; 0.3 μM zinc,0.54 ± 0.03
same,Izn/Io 1 μM,[2]; 1 μM zinc,0.39 ± 0.005 and 0.46 ± 0.03 and 0.37 ± 0.03
same,Izn/Io 3 μM,[2]; 3 μM zinc,0.18 ± 0.09
same,IC50,[2]; read-out: Zn2+ IC50,720 nM and 970 nM and 590 nM
same,Zn2+ Hill slope (nH),[3],0.64 ± 0.10 and 0.70 ± 0.03 and 0.77 ± 0.05
same,Izn/Io 1 nM,[3],0.90 ± 0.01 and 0.90 ± 0.05 and 0.86 ± 0.08
same,Izn/Io 1 nM,[3]; +GNE (100 µM GNE-3419),0.97 ± 0.02
same,Izn/Io 10 nM,[3],0.68 ± 0.01 and 0.68 ± 0.04 and 0.68 ± 0.07
same,Izn/Io 10 nM,[3]; +GNE (100 µM GNE-3419),0.88 ± 0.05
same,Izn/Io 50 nM,[3],0.45 ± 0.02 and 0.45 ± 0.05
same,Izn/Io 50 nM,[3]; +GNE (100 µM GNE-3419),0.76 ± 0.08
same,Izn/Io 500 nM,[3],0.31 ± 0.02 and 0.33 ± 0.04
same,Izn/Io 500 nM,[3]; +GNE (100 µM GNE-3419),0.65 ± 0.07
same,Izn/Io 1000 nM,[3],0.30 ± 0.06 and 0.28 ± 0.04 and 0.30 ± 0.03
same,Izn/Io 1000 nM,[3]; +GNE (100 µM GNE-3419),0.58 ± 0.02
same,Zn2+ maximal inhibition,[3]; fraction,0.74 ± 0.05
same,Zn2+ Hill slope (nH),[3]; in the presence of 100 µM GNE-3419,0.62 ± 0.17
same,IC50,[3]; read-out: Zn2+ IC50,12 nM and 15.3 nM and 13 nM
same,Izn/Io 1 nM,[4]; +UV,0.94 ± 0.01
same,Izn/Io 1 nM,[4]; -UV,0.91 ± 0.02
same,Izn/Io 10 nM,[4]; +UV,0.70 ± 0.02
same,Izn/Io 10 nM,[4]; -UV,0.60 ± 0.01
same,Izn/Io 1000 nM,[4]; +UV,0.48 ± 0.04
same,Izn/Io 1000 nM,[4]; -UV,0.30 ± 0.03
same,Zn2+ Hill slope (nH),[4]; after UV,1.05 ± 0.07
same,Zn2+ maximal inhibition,[4]; after UV,0.52 ± 0.04
same,Zn2+ Hill slope (nH),[4]; before UV,0.99 ± 0.09
same,Zn2+ maximal inhibition,[4]; before UV,0.70 ± 0.03
same,IC50,[5]; after UV,7.69 ± 0.17 nM
same,IC50,[5]; before UV,7.43 ± 1.1 nM
